GI50 and Ki data for 17 molecules are collected here from patent USRE49850E1, “N-(pyridin-2-yl)-4-(thiazol-5-yl)pyrimidin-2-amine derivatives as therapeutic compounds” (AUCENTRA THERAPEUTICS PTY LTD, priority 2015, dated 2024).

The subject of one experiment is MV4-11. Put plainly: Cell viability assay (resazurin, leukemia cell line) MV4-11. The class given is cell-based, human. Particulars: Homo sapiens, MV4-11, 72 h; read-out: Anti-proliferative activity GI50 MV4-11. The source says:
(§1) Compounds from Example 1 were subjected to a standard MTT (3-(4,5-dimethylthiazol-2-yl)-2,5-diphenyltetrazolium bromide) and resazurin assays on solid tumour cell lines and leukemia cell lines, respectively, as previously reported (Wang S et al., J Med Chem 47:1662-1675, 2004 and Diab S. et al. CheMedChem 9:962-972, 2014).
A general note: Resazurin is reduced to fluorescent resorufin, in cell work by metabolically active cells.

Another experiment concerns MDA-MB-453. Put plainly: Cell viability assay (MTT, solid tumour cell line) MDA-MB-453. The format is cell-based, human. As to conditions: Homo sapiens, MDA-MB-453, 72 h; read-out: Anti-proliferative activity GI50 MDA-MB-453.
Source text: as §1

Another experiment concerns the target T1, CDK9T1 (Homo sapiens, UniProt P50750).
T1 construct: purchased Eurofins Pharma Discovery or Reaction Biology Corporation (service)
Put plainly: Kinase assay CDK9/T1 (radiometric or ADP Glo). As to conditions: apparent Ki calculated from Km (ATP) and IC50; read-out: CDK inhibition Ki CDK9T1. The class given is biochemical. On the procedure:
(§2) Eurofins Pharma Discovery or Reaction Biology Corporation Kinase Profiler services were used to measure inhibition of CDKs and other kinases by radiometric assay. Inhibition of CDK4/D1, CDK6/D3 and CDK9/T1 were also determined in-house using ADP Glo Kinase assays (Promega Corporation, Madison, USA). Briefly, the kinase reaction for CDK4/D1 and CDK6/D3 was performed with kinase reaction buffer ([…] Tris base pH 7.5, 20 mM MgCl2, 0.4 mM DTT), 0.1 mg/ml BSA and RB-CTF substrate (retinoblastoma protein1 C-terminal fraction). For CDK9/CyclinT1, the kinase reaction was performed with standard assay buffer and Kinase Dilution Buffer and RBER-IRStide substrate. Serial dilutions of 1:3 were prepared for test compounds for 10 concentrations (from 10 μM to 0.5 nM). The kinase reactions were started by addition of ATP, incubated for 40 min at 37° C. and then stopped by adding 10 μL of ADP Glo reagent. After incubation at room temperature in the dark for 40 min, 20 μL of kinase detection reagent was added per well and incubated for 40 min. Luminescence was measured using an EnVision Multilabel plate reader (PerkinElmer, Buckinghamshire, UK). Positive and negative controls were perfonned in the presence and absence of CDK kinases, respectively. Half-maximal inhibition (IC50) values were calculated using a 4-parameter logistic non-linear regression model with Graphpad prism (Version 6.0). Apparent inhibition constants (Ki) values were calculated from Km (ATP) and IC50 values for the respective kinases.

A further experiment addresses T2, CDK4D1 (Homo sapiens, UniProt P11802).
T2 construct: purchased Eurofins Pharma Discovery or Reaction Biology Corporation (service)
Put plainly: Kinase assay CDK4/D1 (radiometric or ADP Glo). The class given is biochemical. As to conditions: apparent Ki calculated from Km (ATP) and IC50; read-out: CDK inhibition Ki CDK4D1. On the procedure: as §2

A further experiment deals with CDK 2A (Homo sapiens, UniProt P24941). In words: Kinase assay CDK2A (radiometric profiling service). The format is biochemical. Particulars: apparent Ki calculated from Km (ATP) and IC50; read-out: CDK inhibition Ki CDK 2A. The procedure:
as §2

The target in a further experiment is CDK1B (Homo sapiens, UniProt P06493). In words: Kinase assay CDK1B (radiometric profiling service). The class given is biochemical. As to conditions: apparent Ki calculated from Km (ATP) and IC50; read-out: CDK inhibition Ki CDK1B. On the procedure:
as §2

Another experiment deals with T3, CDK6D3 (Homo sapiens, UniProt Q00534).
T3 construct: purchased Eurofins Pharma Discovery or Reaction Biology Corporation (service)
T3 sequence (Q00534 whole entry): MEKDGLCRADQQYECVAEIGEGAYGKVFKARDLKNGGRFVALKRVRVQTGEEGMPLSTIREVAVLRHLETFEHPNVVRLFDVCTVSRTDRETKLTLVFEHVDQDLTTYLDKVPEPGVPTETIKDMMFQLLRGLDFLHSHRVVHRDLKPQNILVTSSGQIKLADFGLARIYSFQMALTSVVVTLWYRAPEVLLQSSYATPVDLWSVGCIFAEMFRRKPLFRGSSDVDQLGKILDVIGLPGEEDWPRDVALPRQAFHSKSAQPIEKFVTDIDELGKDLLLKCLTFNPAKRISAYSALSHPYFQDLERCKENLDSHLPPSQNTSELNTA
T3 sequence (P30281 whole entry partner): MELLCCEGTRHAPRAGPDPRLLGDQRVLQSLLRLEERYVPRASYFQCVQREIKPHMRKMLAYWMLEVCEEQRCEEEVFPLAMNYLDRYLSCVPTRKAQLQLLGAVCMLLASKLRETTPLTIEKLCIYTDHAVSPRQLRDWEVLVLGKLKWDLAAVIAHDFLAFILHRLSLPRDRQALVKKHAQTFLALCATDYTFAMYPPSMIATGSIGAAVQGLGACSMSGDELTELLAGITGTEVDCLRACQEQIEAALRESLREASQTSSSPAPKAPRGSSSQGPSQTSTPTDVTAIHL
In words: Kinase assay CDK6/D3 (radiometric or ADP Glo). The format is biochemical. As to conditions: apparent Ki calculated from Km (ATP) and IC50; read-out: CDK inhibition Ki CDK6D3. On the procedure: as §2

A value given as a limit tells only on which side of the number the result lay.

T2 sequence (P11802 whole entry): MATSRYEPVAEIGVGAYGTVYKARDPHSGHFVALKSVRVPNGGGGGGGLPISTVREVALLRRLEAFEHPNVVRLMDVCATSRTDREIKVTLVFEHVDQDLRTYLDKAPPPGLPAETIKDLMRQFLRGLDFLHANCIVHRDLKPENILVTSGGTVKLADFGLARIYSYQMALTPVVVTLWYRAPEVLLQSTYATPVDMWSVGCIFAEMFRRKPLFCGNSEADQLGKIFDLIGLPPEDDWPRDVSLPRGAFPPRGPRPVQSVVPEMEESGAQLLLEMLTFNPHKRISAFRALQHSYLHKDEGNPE
T2 sequence (P24385 whole entry partner): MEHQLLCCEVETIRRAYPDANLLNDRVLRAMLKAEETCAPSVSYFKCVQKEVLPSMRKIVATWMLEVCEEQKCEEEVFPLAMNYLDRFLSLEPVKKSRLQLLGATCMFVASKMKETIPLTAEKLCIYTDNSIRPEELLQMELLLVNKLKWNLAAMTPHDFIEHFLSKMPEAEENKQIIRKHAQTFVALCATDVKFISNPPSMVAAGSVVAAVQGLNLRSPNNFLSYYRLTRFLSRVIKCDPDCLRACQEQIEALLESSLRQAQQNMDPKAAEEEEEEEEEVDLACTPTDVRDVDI
Sequence of CDK1B (P06493 whole entry): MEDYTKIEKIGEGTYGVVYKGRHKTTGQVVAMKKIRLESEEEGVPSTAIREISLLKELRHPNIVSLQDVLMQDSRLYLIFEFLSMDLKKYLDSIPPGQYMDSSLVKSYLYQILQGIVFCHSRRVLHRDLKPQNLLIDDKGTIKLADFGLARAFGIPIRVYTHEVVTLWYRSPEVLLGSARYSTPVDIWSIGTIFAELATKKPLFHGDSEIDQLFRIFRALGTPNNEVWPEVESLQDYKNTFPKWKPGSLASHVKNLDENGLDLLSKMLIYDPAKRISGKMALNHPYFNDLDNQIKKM
Sequence of CDK1B (P14635 whole entry partner): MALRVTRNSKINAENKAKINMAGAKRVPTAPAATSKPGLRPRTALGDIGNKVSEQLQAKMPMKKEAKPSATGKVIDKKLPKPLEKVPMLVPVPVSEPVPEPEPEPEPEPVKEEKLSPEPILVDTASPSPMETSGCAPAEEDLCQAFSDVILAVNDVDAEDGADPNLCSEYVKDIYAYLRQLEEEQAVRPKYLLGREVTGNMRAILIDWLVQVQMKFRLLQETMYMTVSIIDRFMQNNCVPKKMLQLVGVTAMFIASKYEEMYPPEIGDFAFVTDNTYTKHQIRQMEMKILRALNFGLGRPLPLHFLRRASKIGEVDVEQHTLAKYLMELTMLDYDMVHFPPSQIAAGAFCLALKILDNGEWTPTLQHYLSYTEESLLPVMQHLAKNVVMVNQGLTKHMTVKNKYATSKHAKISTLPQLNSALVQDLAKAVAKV
T1 sequence (P50750 whole entry): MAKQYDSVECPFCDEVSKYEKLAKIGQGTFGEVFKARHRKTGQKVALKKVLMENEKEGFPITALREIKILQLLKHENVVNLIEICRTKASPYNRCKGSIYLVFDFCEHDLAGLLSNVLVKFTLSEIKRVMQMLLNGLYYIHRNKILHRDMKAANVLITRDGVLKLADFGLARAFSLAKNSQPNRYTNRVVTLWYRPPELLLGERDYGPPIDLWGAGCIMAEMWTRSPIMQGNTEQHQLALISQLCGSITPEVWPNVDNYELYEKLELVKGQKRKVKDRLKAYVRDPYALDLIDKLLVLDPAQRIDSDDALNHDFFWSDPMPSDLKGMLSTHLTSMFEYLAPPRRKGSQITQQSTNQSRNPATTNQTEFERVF
T1 sequence (O60563 whole entry partner): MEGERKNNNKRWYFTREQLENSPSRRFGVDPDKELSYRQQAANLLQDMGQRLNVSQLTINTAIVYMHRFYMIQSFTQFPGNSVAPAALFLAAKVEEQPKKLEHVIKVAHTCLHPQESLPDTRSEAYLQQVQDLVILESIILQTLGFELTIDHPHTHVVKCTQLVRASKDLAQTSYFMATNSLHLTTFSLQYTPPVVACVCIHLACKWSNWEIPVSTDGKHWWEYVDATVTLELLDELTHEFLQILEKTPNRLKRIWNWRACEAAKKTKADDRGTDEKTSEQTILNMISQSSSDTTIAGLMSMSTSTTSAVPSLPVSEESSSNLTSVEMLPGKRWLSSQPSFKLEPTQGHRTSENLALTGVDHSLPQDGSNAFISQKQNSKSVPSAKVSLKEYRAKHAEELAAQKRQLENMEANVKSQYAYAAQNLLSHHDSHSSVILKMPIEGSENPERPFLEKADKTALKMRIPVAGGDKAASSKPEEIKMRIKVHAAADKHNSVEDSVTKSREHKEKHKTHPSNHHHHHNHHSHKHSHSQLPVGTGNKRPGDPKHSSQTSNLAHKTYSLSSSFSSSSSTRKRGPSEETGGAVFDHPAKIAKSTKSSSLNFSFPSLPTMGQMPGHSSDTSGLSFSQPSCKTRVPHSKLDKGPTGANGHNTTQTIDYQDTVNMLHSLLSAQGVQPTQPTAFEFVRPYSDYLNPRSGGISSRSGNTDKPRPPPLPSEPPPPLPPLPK

A word on the GI50: it is the concentration at which growth is held to half of that of the control. As for `Cc1nc(NC2CCCC2)sc1-c1ccnc(Nc2ccccn2)n1` [Compound 78, N-cyclopentyl-4-methyl-5-(2-(pyridin-2-ylamino)pyrimidin-4-yl)thiazol-2-amine], the GI50 is 300 ± 35 nM in the experiment on MV4-11 and 4380 ± 691 nM with MDA-MB-453. Besides, the figures for the Ki at CDK9T1 and at CDK4D1 were > 5000 nM and 570 nM, respectively.
For the molecule `Cc1nc(NC2CCCC2)sc1-c1ccnc(Nc2ccc(N3CCC(N)CC3)cn2)n1` [Compound 74, 5-(2-((5-(4-aminopiperidin-1-yl)pyridin-2-yl)amino)pyrimidin-4-yl)-N-cyclopentyl-4-methylthiazol-2-amine], the 50% growth inhibitory concentration (GI50) in the experiment on MV4-11 amounted to 22 ± 2 nM; in the experiment on MDA-MB-453, 55 ± 12 nM. For the same molecule, the Ki was 181 nM at CDK 2A; 173 nM at CDK9T1; 1230 nM at CDK1B; 3 nM on CDK4D1; 133 nM at CDK6D3.
With `Cc1nc(NC2CCCC2)sc1-c1nc(Nc2ccc(N3CCNCC3)cn2)ncc1F` [Compound 61, N-cyclopentyl-5-(5-fluoro-2-((5-(piperazin-1-yl)pyridin-2-yl)amino)pyrimidin-4-yl)-4-methylthiazol-2-amine], the values for the 50% growth inhibitory concentration (GI50) in the experiment on MV4-11 and in the experiment on MDA-MB-453 were 53 ± 4 nM and 780 ± 598 nM, respectively. Moreover, the Ki on CDK 2A is 256 nM; at CDK9T1, 787 nM; at CDK1B, 2240 nM; on CDK4D1, 3 nM; on CDK6D3, 7 nM.
As to `CCN1CCN(c2ccc(Nc3ncc(F)c(-c4sc(NC5CCCC5)nc4C)n3)nc2)CC1` [Compound 67, N-cyclopentyl-5-(2-((5-(4-ethylpiperazin-1-yl)pyridin-2-yl)amino)-5-fluoropyrimidin-4-yl)-4-methylthiazol-2-amine], the GI50 in the experiment on MV4-11 amounted to 13 ± 2 nM; in the experiment with MDA-MB-453, 66 ± 19 nM. Further, the Ki on CDK 2A was 349 nM; on CDK9T1 it was > 5000 nM; at CDK1B, > 5000 nM; at CDK4D1 it was 2 nM; at CDK6D3, 6 nM.
As for `CC(=O)N1CCN(c2ccc(Nc3nccc(-c4sc(NC5CCCC5)nc4C)n3)nc2)CC1` [Compound 68, 1-(4-(6-((4-(2-(Cyclopentylamino)-4-methylthiazol-5-yl)pyrimidin-2-yl)amino)pyridin-3-yl)piperazin-1-yl) ethan-1-one], the concentration for 50% growth inhibition (GI50) stood at 24 ± 28 nM in the experiment on MV4-11 and 591 ± 256 nM in the experiment on MDA-MB-453. Further, the Ki at CDK 2A was 776 nM; at CDK9T1 it was 286 nM; on CDK1B it was 3250 nM; on CDK4D1 it was 6 nM; on CDK6D3, 93 nM.
For `CN1CCN(c2ccc(Nc3nccc(-c4sc(NC5CCCC5)nc4C(F)(F)F)n3)nc2)CC1` [Compound 65, N-cyclopentyl-5-(2-((5-(4-methylpiperazin-1-yl)pyridin-2-yl)amino)pyrimidin-4-yl)-4-(trifluoromethyl)thiazol-2-amine], the 50% growth inhibitory concentration (GI50) was determined as 1 ± 1 nM in the experiment on MV4-11 and 420 ± 120 nM with MDA-MB-453. The Ki at CDK 2A was 22 nM; on CDK9T1, 831 nM; at CDK1B, 241 nM; at CDK4D1, 1 nM; on CDK6D3, 3 nM.
Take `CCN1CCN(Cc2ccc(Nc3nccc(-c4sc(NC5CCCC5)nc4C)n3)nc2)CC1` [Compound 83, N-cyclopentyl-5-(2-((5-((4-ethylpiperazin-1-yl)methyl)pyridin-2-yl)amino)pyrimidin-4-yl)-4-methylthiazol-2-amine]: the GI50 with MV4-11 came out at 19 ± 3 nM; in the experiment with MDA-MB-453 it was 4 ± 2 nM. Besides, the Ki at CDK9T1 was 1980 nM; at CDK1B it was > 5000 nM.
`FC(F)(F)c1nc(NC2CCCC2)sc1-c1ccnc(Nc2ccc(N3CCNCC3)cn2)n1` [Compound 62, N-cyclopentyl-5-(2-((5-(piperazin-1-yl)pyridin-2-yl)amino)pyrimidin-4-yl)-4-(trifluoromethyl)thiazol-2-amine]: the results for the GI50 in the experiment with MV4-11 and in the experiment with MDA-MB-453 were 2 ± 1 nM and 81 ± 39 nM, respectively. The Ki on CDK 2A is 22 nM; on CDK9T1, 258 nM; at CDK1B, 220 nM; on CDK4D1 it was 8 nM; on CDK6D3, 2 nM.
Turning to `Cc1nc(NC2CCCC2)sc1-c1ccnc(Nc2ccc(N3CCN(S(C)(=O)=O)CC3)cn2)n1` [Compound 77], the GI50 in the experiment with MV4-11 is 176 ± 9 nM; with MDA-MB-453, 215 ± 52 nM.
As for `Cc1nc(NC(C)C)sc1-c1ccnc(Nc2ccc(N3CCCNCC3)cn2)n1` [Compound 59, 5-(2-((5-(1,4-diazepan-1-yl)pyridin-2-yl)amino)pyrimidin-4-yl)-N-isopropyl-4-methylthiazol-2-amine], the 50% growth inhibitory concentration (GI50) was 255 ± 85 nM with MV4-11 and 938 ± 68 nM with MDA-MB-453. The Ki at CDK 2A was 800 nM; on CDK9T1 it was 925 nM; at CDK1B, > 5000 nM; at CDK4D1, 16 nM; at CDK6D3, 28 nM.
For `Cc1nc(Nc2ccccc2)sc1-c1ccnc(Nc2ccc(N3CCNCC3)cn2)n1` [Compound 89, 4-Methyl-N-phenyl-5-(2-((5-(piperazin-1-yl)pyridin-2-yl)amino)pyrimidin-4-yl)thiazol-2-amine], the GI50 in the experiment on MV4-11 came to 56 ± 11 nM; in the experiment with MDA-MB-453 it was 279 ± 44 nM. The Ki at CDK 2A is > 5000 nM; at CDK9T1, 436 nM; on CDK1B it was 2040 nM; at CDK4D1, 5 nM; at CDK6D3, 66 nM.
With `O=CN1CCN(c2ccc(Nc3nccc(-c4sc(NC5CCCC5)nc4C(F)(F)F)n3)nc2)CC1` [Compound 79, 4-(6-((4-(2-(cyclopentylamino)-4-(trifluoromethyl)thiazol-5-yl)pyrimidin-2-yl)amino)pyridin-3-yl)piperazine-1-carbaldehyde], the concentration for 50% growth inhibition (GI50) was determined as 4 ± 1 nM in the experiment with MV4-11 and 336 ± 188 nM with MDA-MB-453. Besides, the Ki at CDK 2A is 15 nM; at CDK9T1, > 5000 nM; on CDK1B, 345 nM; at CDK4D1, 11 nM; at CDK6D3, 7 nM.
Consider `CNc1nc(C)c(-c2nc(Nc3ccccn3)ncc2F)s1` [Compound 54, 5-(5-fluoro-2-(pyridin-2-ylamino)pyrimidin-4-yl)-N,4-dimethylthiazol-2-amine], for which the results for the GI50 with MV4-11 and in the experiment with MDA-MB-453 were 2160 ± 431 nM and 2940 ± 507 nM, respectively. The Ki at CDK4D1 is > 5000 nM.
In the case of `Cc1nc(NC(C)C)sc1-c1ccnc(Nc2ccc(N3CCN(C)CC3)cn2)n1` [Compound 56, N-isopropyl-4-methyl-5-(2-((5-(4-methylpiperazin-1-yl)pyridin-2-yl)amino)pyrimidin-4-yl)thiazol-2-amine], the 50% growth inhibitory concentration (GI50) with MV4-11 is 75 ± 5 nM; in the experiment with MDA-MB-453, 618 ± 193 nM. Moreover, the Ki at CDK 2A was 399 nM; at CDK9T1, 773 nM; at CDK1B it was 3810 nM; on CDK4D1, 3 nM; on CDK6D3, 15 nM.
Regarding `Cc1nc(NC(C)C)sc1-c1ccnc(Nc2ccc(N3CCNCC3)cn2)n1` [Compound 55, N-isopropyl-4-methyl-5-(2-((5-(piperazin-1-yl)pyridin-2-yl)amino)pyrimidin-4-yl)thiazol-2-amine], the GI50 in the experiment on MV4-11 was 93 ± 10 nM; with MDA-MB-453 it was 31 ± 2 nM. The Ki is 240 nM at CDK 2A; 2420 nM on CDK9T1; 3140 nM on CDK1B; 5 nM at CDK4D1; 11 nM on CDK6D3.
For `Cc1nc(NC2CCCC2)sc1-c1nc(Nc2ccc(N3CCCNCC3)cn2)ncc1F` [Compound 81, 5-(2-((5-(1,4-diazepan-1-yl)pyridin-2-yl)amino)-5-fluoropyrimidin-4-yl)-N-cyclopentyl-4-methylthiazol-2-amine], the GI50 in the experiment with MV4-11 turned out to be 29 ± 2 nM; in the experiment on MDA-MB-453, 83 ± 9 nM. Besides, the Ki on CDK 2A was 417 nM; on CDK9T1, 679 nM; on CDK1B, > 5000 nM; at CDK4D1 it was 14 nM; on CDK6D3, 10 nM.
As for `CNc1nc(C)c(-c2nc(Nc3ccc(N4CCCCC4)cn3)ncc2F)s1` [Compound 51, 5-(5-fluoro-2-((5-(piperidin-1-yl)pyridin-2-yl)amino)pyrimidin-4-yl)-N,4-dimethylthiazol-2-amine], the 50% growth inhibitory concentration (GI50) with MV4-11 amounted to 606 ± 38 nM; in the experiment with MDA-MB-453, 463 ± 75 nM. Moreover, at CDK4D1, the Ki is > 5000 nM.
